The Kinase Knowledgebase extract (Sharma et al. 2016)

Experiments:
[1] = target: EGFR (human), P00533 [L858R]
[2] = target: EGFR (human) (UniProt P00533)
[3] = target: EGFR (Human), P00533 [T790M/L858R]; details: baf3
[4] = target: EGFR (Human), P00533 [Assessment of EGFR-Del T790M Dependent Cell Proliferation in BaF3 Cells]
[5] = target: EGFR (Human), P00533 [T790M/L858R]

EGFR (human), P00533 [L858R], sequence (P00533 whole entry L858R, looked up): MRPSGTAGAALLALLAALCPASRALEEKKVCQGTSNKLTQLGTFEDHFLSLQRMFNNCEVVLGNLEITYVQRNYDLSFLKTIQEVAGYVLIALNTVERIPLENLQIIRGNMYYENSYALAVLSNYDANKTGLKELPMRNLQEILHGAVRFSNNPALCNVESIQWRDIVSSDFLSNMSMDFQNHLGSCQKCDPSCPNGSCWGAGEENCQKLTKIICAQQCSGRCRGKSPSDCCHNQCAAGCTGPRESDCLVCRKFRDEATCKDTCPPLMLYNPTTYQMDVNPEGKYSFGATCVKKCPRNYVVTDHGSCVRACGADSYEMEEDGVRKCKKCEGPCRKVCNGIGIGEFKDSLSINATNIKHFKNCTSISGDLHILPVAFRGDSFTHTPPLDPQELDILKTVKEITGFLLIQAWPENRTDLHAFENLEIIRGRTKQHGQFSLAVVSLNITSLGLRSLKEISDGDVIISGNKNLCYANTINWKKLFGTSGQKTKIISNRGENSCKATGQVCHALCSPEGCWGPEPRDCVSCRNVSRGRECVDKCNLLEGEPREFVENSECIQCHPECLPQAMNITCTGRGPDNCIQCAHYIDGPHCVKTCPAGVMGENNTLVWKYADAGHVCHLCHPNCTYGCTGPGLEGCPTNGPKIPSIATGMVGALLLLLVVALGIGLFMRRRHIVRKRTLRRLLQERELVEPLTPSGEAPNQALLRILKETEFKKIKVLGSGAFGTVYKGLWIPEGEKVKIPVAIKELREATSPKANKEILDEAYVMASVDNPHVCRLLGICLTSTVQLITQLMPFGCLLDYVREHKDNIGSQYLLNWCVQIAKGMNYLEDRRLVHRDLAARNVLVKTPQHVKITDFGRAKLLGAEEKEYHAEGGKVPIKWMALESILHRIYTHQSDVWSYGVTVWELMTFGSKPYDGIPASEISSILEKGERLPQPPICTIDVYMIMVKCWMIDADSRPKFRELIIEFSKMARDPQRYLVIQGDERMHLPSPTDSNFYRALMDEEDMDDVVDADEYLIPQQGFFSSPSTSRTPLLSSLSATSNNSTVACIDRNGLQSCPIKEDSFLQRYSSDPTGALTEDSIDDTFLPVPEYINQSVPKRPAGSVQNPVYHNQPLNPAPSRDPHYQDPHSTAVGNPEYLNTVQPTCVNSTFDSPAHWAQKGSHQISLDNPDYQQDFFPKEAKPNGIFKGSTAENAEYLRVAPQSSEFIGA
EGFR (Human), P00533 [Assessment of EGFR-Del T790M Dependent Cell Proliferation in BaF3 Cells], sequence (P00533 whole entry, looked up, stated change not applied): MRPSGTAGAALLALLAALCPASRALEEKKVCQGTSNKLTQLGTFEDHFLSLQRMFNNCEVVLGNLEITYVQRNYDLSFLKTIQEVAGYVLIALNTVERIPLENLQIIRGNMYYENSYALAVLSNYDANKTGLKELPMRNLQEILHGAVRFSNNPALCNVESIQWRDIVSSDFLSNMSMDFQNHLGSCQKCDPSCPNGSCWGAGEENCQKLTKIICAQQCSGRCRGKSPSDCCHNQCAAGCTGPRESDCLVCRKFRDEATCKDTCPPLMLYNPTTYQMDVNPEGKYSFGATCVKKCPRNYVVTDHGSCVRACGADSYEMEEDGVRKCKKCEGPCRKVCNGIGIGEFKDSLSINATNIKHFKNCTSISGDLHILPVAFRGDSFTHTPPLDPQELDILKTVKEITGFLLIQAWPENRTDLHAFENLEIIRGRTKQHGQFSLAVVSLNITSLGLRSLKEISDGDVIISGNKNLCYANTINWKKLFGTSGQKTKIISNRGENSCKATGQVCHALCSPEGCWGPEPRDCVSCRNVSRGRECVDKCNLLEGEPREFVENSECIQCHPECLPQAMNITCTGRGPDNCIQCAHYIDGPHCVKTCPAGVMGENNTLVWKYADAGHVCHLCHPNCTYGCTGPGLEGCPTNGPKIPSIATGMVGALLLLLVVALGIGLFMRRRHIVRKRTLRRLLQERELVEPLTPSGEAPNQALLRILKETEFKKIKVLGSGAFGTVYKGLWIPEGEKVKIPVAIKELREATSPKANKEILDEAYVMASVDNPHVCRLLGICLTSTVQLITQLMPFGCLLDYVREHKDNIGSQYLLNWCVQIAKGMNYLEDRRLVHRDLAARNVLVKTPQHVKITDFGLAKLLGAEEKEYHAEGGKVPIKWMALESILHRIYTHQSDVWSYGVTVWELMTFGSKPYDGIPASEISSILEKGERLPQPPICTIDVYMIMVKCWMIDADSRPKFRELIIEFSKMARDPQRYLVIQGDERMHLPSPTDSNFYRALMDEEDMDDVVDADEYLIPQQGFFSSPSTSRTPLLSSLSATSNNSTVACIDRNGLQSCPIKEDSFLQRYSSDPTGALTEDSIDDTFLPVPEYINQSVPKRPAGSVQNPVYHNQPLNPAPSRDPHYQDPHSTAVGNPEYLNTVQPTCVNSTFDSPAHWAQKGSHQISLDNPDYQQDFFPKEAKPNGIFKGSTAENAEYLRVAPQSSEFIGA
EGFR (human), sequence (P00533 whole entry, looked up): as the sequence (P00533 whole entry, looked up, stated change not applied) above
EGFR (Human), P00533 [T790M/L858R], sequence (P00533 whole entry T790M/L858R, looked up): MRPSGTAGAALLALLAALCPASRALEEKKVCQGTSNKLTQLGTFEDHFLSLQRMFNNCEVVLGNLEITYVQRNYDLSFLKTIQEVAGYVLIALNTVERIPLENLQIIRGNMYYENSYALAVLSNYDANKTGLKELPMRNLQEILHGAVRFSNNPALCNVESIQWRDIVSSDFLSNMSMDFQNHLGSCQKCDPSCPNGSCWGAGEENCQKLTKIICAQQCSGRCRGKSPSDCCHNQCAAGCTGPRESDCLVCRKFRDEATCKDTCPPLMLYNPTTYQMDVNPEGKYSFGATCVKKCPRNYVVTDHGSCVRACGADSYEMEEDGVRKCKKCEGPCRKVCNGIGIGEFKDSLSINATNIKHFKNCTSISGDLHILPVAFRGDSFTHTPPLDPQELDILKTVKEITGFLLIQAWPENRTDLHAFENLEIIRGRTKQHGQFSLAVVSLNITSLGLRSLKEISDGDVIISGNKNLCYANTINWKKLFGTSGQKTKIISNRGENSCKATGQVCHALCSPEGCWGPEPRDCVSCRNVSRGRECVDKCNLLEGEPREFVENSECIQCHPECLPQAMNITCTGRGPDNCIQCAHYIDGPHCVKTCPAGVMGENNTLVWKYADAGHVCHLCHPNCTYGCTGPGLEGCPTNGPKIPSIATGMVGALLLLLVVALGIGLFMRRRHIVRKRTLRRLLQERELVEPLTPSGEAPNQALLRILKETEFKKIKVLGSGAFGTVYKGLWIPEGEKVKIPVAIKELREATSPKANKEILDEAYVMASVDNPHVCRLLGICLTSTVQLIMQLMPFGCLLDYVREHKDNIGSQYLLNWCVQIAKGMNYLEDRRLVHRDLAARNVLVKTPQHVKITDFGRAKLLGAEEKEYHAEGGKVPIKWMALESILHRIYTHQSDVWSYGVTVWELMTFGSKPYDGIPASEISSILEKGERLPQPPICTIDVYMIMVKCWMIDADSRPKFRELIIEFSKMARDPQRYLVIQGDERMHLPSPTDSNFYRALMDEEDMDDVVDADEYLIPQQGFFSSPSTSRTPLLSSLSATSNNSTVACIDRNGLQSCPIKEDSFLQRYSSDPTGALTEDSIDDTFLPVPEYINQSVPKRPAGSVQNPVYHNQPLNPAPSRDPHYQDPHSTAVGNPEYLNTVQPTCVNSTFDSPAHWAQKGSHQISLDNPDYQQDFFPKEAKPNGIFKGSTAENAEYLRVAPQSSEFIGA

| Structure (SMILES) | IC50 [1] [µM] | IC50 [2] [µM] | IC50 [3] [µM] | IC50 [4] [µM] | IC50 [5] [µM] |
| --- | --- | --- | --- | --- | --- |
| C=C(C)C(=O)Nc1cc(Nc2ncc(Cl)c(Nc3ccccc3P(C)(C)=O)n2)c(OC)cc1N1CC[C@@H](N(C)C)C1 | < 0.05 | 0.101 to 0.25 | < 0.05 | < 0.05 | < 0.05 |
| COc1cc(N2CCOCC2)c(NC(=O)C#CCN(C)C)cc1Nc1ncc(Cl)c(Nc2ccccc2P(C)(C)=O)n1 | < 0.05 | < 0.05 | < 0.05 | < 0.05 | < 0.05 |
| Cc1ccc(NC(=O)CCl)cc1Nc1ncc(Cl)c(Nc2ccccc2P(C)(C)=O)n1 | < 0.05 | < 0.05 | < 0.05 | < 0.05 | < 0.05 |
| C=CC(=O)Nc1ccc(OC)c(Nc2ncc(Cl)c(Nc3ccc(OCC4CCOCC4)cc3P(C)(C)=O)n2)c1 | < 0.05 | 0.05 to 0.1 | < 0.05 | < 0.05 | < 0.05 |
| C=CC(=O)Nc1cc(Nc2ncc(Cl)c(Nc3ccccc3P(C)(C)=O)n2)c(OC)cc1OCCCN1CCOCC1 | < 0.05 | 0.101 to 0.25 | 0.101 to 0.25 | 0.101 to 0.25 | < 0.05 |
| C=C(CN1CCC(N2CCOCC2)CC1)C(=O)Nc1ccc(OC)c(Nc2ncc(Cl)c(Nc3ccccc3P(C)(C)=O)n2)c1 | < 0.05 | < 0.05 | < 0.05 | < 0.05 | < 0.05 |
| COCC#CC(=O)Nc1cc(Nc2ncc(Cl)c(Nc3ccccc3P(C)(C)=O)n2)c(OC)cc1N1CCOCC1 | < 0.05 | < 0.05 | < 0.05 | < 0.05 | < 0.05 |
| COCC1CCCN1CCC#CC(=O)Nc1cc(Nc2ncc(Cl)c(Nc3ccccc3P(C)(C)=O)n2)c(OC)cc1N1CCOCC1 (stereo not given) | < 0.05 | < 0.05 | < 0.05 | < 0.05 | < 0.05 |
| C=CC(=O)Nc1cc(Nc2ncc(Cl)c(Nc3ccccc3P(C)(C)=O)n2)c(OC)cc1C#CCN1CCCC1 | < 0.05 | < 0.05 | < 0.05 | < 0.05 | < 0.05 |
| C=CC(=O)Nc1cc(Nc2ncc(Cl)c(Nc3ccccc3P(C)(C)=O)n2)c(OC)cc1N1CCCC(N(C)C)C1 (stereo not given) | < 0.05 | < 0.05 | < 0.05 | < 0.05 | < 0.05 |
| C=CC(=O)Nc1cc(Nc2ncc(Cl)c(Nc3ccccc3P(C)(C)=O)n2)c(OC)cc1N1CCC(O)C1 (stereo not given) | < 0.05 | < 0.05 | 0.101 to 0.25 | 0.05 to 0.1 | < 0.05 |
| COc1cc(F)c(NC(=O)C#CCCN2CCCCC2)cc1Nc1ncc(Cl)c(Nc2ccccc2P(C)(C)=O)n1 | < 0.05 | < 0.05 | < 0.05 | < 0.05 | < 0.05 |
| C=CC(=O)Nc1cc(Nc2ncc(Cl)c(Nc3ccccc3P(C)(C)=O)n2)c(CC)cc1C#CCN(C)C | < 0.05 | < 0.05 | < 0.05 | < 0.05 | < 0.05 |
| C=CC(=O)Nc1cc(Nc2ncc(Cl)c(Nc3ccccc3P(C)(C)=O)n2)c(OC)cc1N1CCC(N2CCCCC2)C1 (stereo not given) | < 0.05 | < 0.05 | < 0.05 | < 0.05 | < 0.05 |
| C=C(CN1CCN(C(C)C)CC1)C(=O)Nc1ccc(OC)c(Nc2ncc(Cl)c(Nc3ccccc3P(C)(C)=O)n2)c1 | < 0.05 | 0.05 to 0.1 | < 0.05 | < 0.05 | < 0.05 |
| C=CC(=O)Nc1cc(Nc2ncc(Cl)c(Nc3ccccc3P(C)(C)=O)n2)c(OC)cc1N1CCC(N2CCOCC2)C1 (stereo not given) | < 0.05 | < 0.05 | < 0.05 | < 0.05 | < 0.05 |
| COc1cc(N2CCOCC2)c(NC(=O)C#CCCN2CCCCC2)cc1Nc1ncc(Cl)c(Nc2ccccc2P(C)(C)=O)n1 | < 0.05 | < 0.05 | < 0.05 | < 0.05 | < 0.05 |
| CCOC(=O)/C=C/C(=O)Nc1ccc(OC)c(Nc2ncc(Cl)c(Nc3ccccc3P(C)(C)=O)n2)c1 | < 0.05 | < 0.05 | < 0.05 | < 0.05 | < 0.05 |
| C=CC(=O)Nc1cc(Nc2ncc(Cl)c(Nc3ccccc3P(C)(C)=O)n2)c(OC)cc1N1CCC(N(C)CCOC)C1 (stereo not given) | < 0.05 | < 0.05 | < 0.05 | < 0.05 | < 0.05 |
| C=CC(=O)Nc1cc(Nc2ncc(Cl)c(Nc3ccccc3P(C)(C)=O)n2)c(OC)cc1C#CCN(C)C | < 0.05 | < 0.05 | < 0.05 | < 0.05 | < 0.05 |
| C=CC(=O)Nc1ccc(OC)c(Nc2ncc(Cl)c(Nc3ccc(OCCOC)cc3P(C)(C)=O)n2)c1 | < 0.05 | 0.05 to 0.1 | 0.05 to 0.1 | < 0.05 | < 0.05 |
| C=CC(=O)Nc1cc(Nc2ncc(Cl)c(Nc3ccccc3P(C)(C)=O)n2)c(OC)cc1N1CCC(N(C)C)CC1 | < 0.05 | < 0.05 | 0.101 to 0.25 | < 0.05 | < 0.05 |
